Assay results reported in ChEMBL document CHEMBL4402510, “Caprazamycins: Promising lead structures acting on a novel antibacterial target MraY” (Eur J Med Chem, 2019).
Converted amounts (≈) assume the structure as drawn.

Tests used:
[1] = test system: Mycolicibacterium smegmatis; experiment: Antibacterial activity against Mycobacterium smegmatis; assay type: functional
[2] = test system: Mycobacterium tuberculosis; experiment: Antibacterial activity against Mycobacterium tuberculosis; assay type: functional
[3] = test system: Mycobacterium intracellulare; experiment: Antibacterial activity against Mycobacterium intracellulare; assay type: functional
[4] = test system: Mycobacterium avium; experiment: Antibacterial activity against Mycobacterium avium; assay type: functional
[5] = test system: Enterococcus faecium; experiment: Antibacterial activity against Enterococcus faecium SR7917 (VRE); assay type: functional
[6] = test system: Haemophilus influenzae; experiment: Antibacterial activity against Haemophilus influenzae ATCC 10211; assay type: functional
[7] = test system: Staphylococcus aureus; experiment: Antibacterial activity against methicillin susceptible Staphylococcus aureus ATCC 29213; assay type: functional
[8] = test system: Streptococcus pneumoniae; experiment: Antibacterial activity against Streptococcus pneumoniae; assay type: functional
[9] = test system: Staphylococcus aureus; experiment: Antibacterial activity against methicillin resistant Staphylococcus aureus SR3637; assay type: functional
[10] = target: T1, Phospho-N-acetylmuramoyl-pentapeptide-transferase (Staphylococcus aureus, UniProt P0C1R8); experiment: Inhibition of MraY in Staphylococcus aureus
T1 sequence (P0C1R8 whole entry): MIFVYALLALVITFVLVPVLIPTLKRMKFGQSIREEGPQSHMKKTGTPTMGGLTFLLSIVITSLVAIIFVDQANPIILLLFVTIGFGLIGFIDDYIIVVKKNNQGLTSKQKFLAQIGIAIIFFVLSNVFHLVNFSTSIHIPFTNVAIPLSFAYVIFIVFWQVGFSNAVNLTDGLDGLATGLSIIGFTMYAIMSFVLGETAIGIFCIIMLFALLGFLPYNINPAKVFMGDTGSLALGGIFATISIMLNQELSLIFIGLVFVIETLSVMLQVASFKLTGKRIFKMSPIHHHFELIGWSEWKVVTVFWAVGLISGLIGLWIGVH

[11] = test system: Pseudomonas aeruginosa; experiment: Antibacterial activity against Pseudomonas aeruginosa YY165; assay type: functional
[12] = test system: Acinetobacter baumannii; experiment: Antibacterial activity against Acinetobacter baumannii ATCC 19606; assay type: functional; conditions: ATCC 19606 = CIP 70.34 = JCM 6841
[13] = test system: Pseudomonas aeruginosa; experiment: Antibacterial activity against Pseudomonas aeruginosa PAO1 deltamexB; assay type: functional
[14] = test system: Enterococcus faecalis; experiment: Antibacterial activity against Enterococcus faecalis SR7914 (VRE); assay type: functional
[15] = test system: Escherichia coli; experiment: Antibacterial activity against Escherichia coli ATCC 25922; assay type: functional
[16] = test system: Enterococcus faecium; experiment: Antibacterial activity against Enterococcus faecium ATCC 19434; assay type: functional
[17] = test system: Enterococcus faecalis; experiment: Antibacterial activity against Enterococcus faecalis ATCC 29212; assay type: functional
[18] = test system: Citrobacter freundii; experiment: Antibacterial activity against Citrobacter freundii ATCC 8090; assay type: functional
[19] = test system: Staphylococcus aureus; experiment: Antibacterial activity against Staphylococcus aureus ATCC 25923; assay type: functional
[20] = target: T2, Phospho-N-acetylmuramoyl-pentapeptide-transferase (Aquifex aeolicus (strain VF5), UniProt O66465); experiment: Inhibition of MraY in Aquifex aeolicus
T2 sequence (O66465 whole entry): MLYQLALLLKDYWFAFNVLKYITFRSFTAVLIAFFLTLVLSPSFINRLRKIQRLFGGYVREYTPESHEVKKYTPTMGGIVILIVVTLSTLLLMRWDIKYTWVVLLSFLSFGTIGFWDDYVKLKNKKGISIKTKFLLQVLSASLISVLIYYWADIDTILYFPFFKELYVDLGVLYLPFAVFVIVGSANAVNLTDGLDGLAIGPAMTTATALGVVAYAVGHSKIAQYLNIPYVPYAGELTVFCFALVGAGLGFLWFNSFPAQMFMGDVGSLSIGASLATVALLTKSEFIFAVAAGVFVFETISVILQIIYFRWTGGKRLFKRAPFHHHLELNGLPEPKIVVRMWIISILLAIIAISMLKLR

[21] = test system: Escherichia coli; experiment: Antibacterial activity against Escherichia coli ATCC 8730; assay type: functional
[22] = test system: Pseudomonas aeruginosa; experiment: Antibacterial activity against Pseudomonas aeruginosa ATCC 27853; assay type: functional
[23] = test system: Staphylococcus aureus; experiment: Antibacterial activity against methicillin resistant Staphylococcus aureus ATCC 43300; assay type: functional
[24] = target: T3, Phospho-N-acetylmuramoyl-pentapeptide-transferase (Bacillus subtilis (strain 168), UniProt Q03521); experiment: Inhibition of MraY in Bacillus subtilis
T3 sequence (Q03521 whole entry): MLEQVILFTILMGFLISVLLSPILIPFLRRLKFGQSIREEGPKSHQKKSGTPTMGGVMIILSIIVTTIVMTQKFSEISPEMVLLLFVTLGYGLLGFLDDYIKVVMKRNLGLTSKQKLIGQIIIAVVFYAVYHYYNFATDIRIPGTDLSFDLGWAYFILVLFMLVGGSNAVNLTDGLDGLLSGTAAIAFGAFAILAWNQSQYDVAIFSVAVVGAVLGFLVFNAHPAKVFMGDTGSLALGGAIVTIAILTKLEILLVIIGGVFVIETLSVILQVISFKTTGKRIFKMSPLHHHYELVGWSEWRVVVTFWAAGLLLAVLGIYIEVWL

Compound | MIC [1] [µg/mL] | MIC [2] [µg/mL] | MIC [3] [µg/mL] | MIC [4] [µg/mL] | MIC [16] [µg/mL] | MIC [18] [µg/mL] | MIC [19] [µg/mL] | IC50 [20] [µM] | MIC [21] [µg/mL] | MIC [22] [µg/mL] | MIC [23] [µg/mL] | also measured
CCCCCCCCCCCC[C@@H](CC(=O)O[C@H]1CN(C)[C@@H]([C@H](O[C@@H]2O[C@H](CN)[C@@H](O)[C@H]2O)[C@H]2O[C@@H](n3ccc(=O)[nH]c3=O)[C@H](O)[C@@H]2O)C(=O)N(C)[C@@H]1C(=O)O)OC(=O)C[C@H](C)CC(=O)O[C@@H]1O[C@@H](C)[C@H](OC)[C@@H](OC)[C@H]1OC | 0.78 to 1.56 (≈ 0.689 to 1.38 µM) | 0.78 (≈ 0.689 µM) | 0.78 (≈ 0.689 µM) | < 0.025 |  |  |  |  |  |  |  | 
CCCCCCCCCCC[C@@H](CC(=O)O[C@H]1CN(C)[C@@H]([C@H](O[C@@H]2O[C@H](CN)[C@@H](O)[C@H]2O)[C@H]2O[C@@H](n3ccc(=O)[nH]c3=O)[C@H](O)[C@@H]2O)C(=O)N(C)[C@@H]1C(=O)O)OC(=O)C[C@H](C)CC(=O)O[C@@H]1O[C@@H](C)[C@H](OC)[C@@H](OC)[C@H]1OC | 0.39 to 1.56 (≈ 0.349 to 1.4 µM) | 0.78 (≈ 0.698 µM) | 0.78 (≈ 0.698 µM) | < 0.025 |  |  |  |  |  |  |  | 
CC(=O)N[C@H]1CCN[C@H]([C@@H](O[C@@H]2O[C@H](CN)[C@@H](O)[C@H]2O)[C@H]2O[C@@H](n3ccc(=O)[nH]c3=O)[C@H](O)[C@@H]2O)C1 |  |  |  |  | > 64 |  |  |  |  |  |  | MIC [5]: > 64 µg/mL; MIC [6]: > 64 µg/mL; MIC [7]: > 64 µg/mL; MIC [8]: > 64 µg/mL; MIC [9]: > 64 µg/mL; IC50 [10]: > 4200 µM; MIC [11]: > 64 µg/mL; MIC [12]: > 64 µg/mL; MIC [13]: > 64 µg/mL; MIC [14]: > 64 µg/mL; MIC [15]: > 64 µg/mL; MIC [17]: > 64 µg/mL
CC(=O)N[C@H]1CCN[C@H]([C@H](O[C@@H]2O[C@H](CN)[C@@H](O)[C@H]2O)[C@H]2O[C@@H](n3ccc(=O)[nH]c3=O)[C@H](O)[C@@H]2O)C1 |  |  |  |  | > 64 |  |  |  |  |  |  | MIC [5]: > 64 µg/mL; MIC [6]: > 64 µg/mL; MIC [7]: > 64 µg/mL; MIC [8]: > 64 µg/mL; MIC [9]: > 64 µg/mL; IC50 [10]: 4000 µM; MIC [11]: > 64 µg/mL; MIC [12]: > 64 µg/mL; MIC [13]: > 64 µg/mL; MIC [14]: > 64 µg/mL; MIC [15]: > 64 µg/mL; MIC [17]: > 64 µg/mL
NC[C@H]1O[C@@H](O[C@@H](Cn2cc(CCCCCCCCCCOc3ccc(C(=O)c4ccccc4)cc3)nn2)[C@H]2O[C@@H](n3ccc(=O)[nH]c3=O)[C@H](O)[C@@H]2O)[C@H](O)[C@@H]1O |  |  |  |  | 128 (≈ 161 µM) | > 128 | 16 (≈ 20.2 µM) | 25 | > 128 | > 128 | 8 (≈ 10.1 µM) | 
NC[C@H]1O[C@@H](O[C@@H](c2cn(Cc3ccc(COc4ccc(C(=O)c5ccccc5)cc4)cc3)nn2)[C@H]2O[C@@H](n3ccc(=O)[nH]c3=O)[C@H](O)[C@@H]2O)[C@H](O)[C@@H]1O |  |  |  |  | > 128 | > 128 | > 128 | 75 | > 128 | > 128 | 32 (≈ 43.1 µM) | IC50 [24]: 50 µM
CO[C@@H]1[C@@H](OC)[C@H](C)O[C@@H](OC(=O)C[C@@H](C)CC(=O)O[C@@H](CCCCCCCCC(C)C)CC(=O)O[C@H]2CN(C)[C@@H]([C@H](O[C@@H]3O[C@H](CN)[C@@H](O)[C@H]3O)[C@H]3O[C@@H](n4ccc(=O)[nH]c4=O)[C@H](O)[C@@H]3O)C(=O)N(C)[C@@H]2C(=O)O)[C@@H]1OC | 0.78 to 1.56 (≈ 0.698 to 1.4 µM) | 1.56 (≈ 1.4 µM) | 1.56 (≈ 1.4 µM) | 0.1 (≈ 0.0894 µM) |  |  |  |  |  |  |  | 
CCCCCCCCCCn1cc(C[C@H](O[C@@H]2O[C@H](CN)[C@@H](O)[C@H]2O)[C@H]2O[C@@H](n3ccc(=O)[nH]c3=O)[C@H](O)[C@@H]2O)nn1 |  |  |  |  | > 128 | > 128 | 128 (≈ 215 µM) | 15 | > 128 | > 128 | 64 (≈ 107 µM) | 
